According to patent US6869974B1, “Pharmaceutical compounds” (Nicox S.A., priority 1999, dated 2005):
“Also recorded” adds a separate entry of the source.

What was measured:
[1] = in vivo; details: rat, in vivo
Protocol: (§1) The animals (rats) are distributed in the following groups (no. 10 animals for group):
(§2) • 1° group: treatment: only carrier (aqueous suspension 1% w/v of carboxyymethylcellulose, dose: 5 ml/Kg when the drug is administered by os, or a physiologic solution when parenterally administered, i.e. by subcutaneous, intraperitoneal, ir-ravenous or intermuscular route), • 2° group: treatment: carrier as above defined+NEM, B) Groups treated with the drug: • group I: treatment: carrier+drug, • gruppo II: treatment: carrier+drug+NEM.
(§3) The administration routes are those known for the drug, and can be the oral or subcutaneous, intraperitoneal, intravenous or intramuscular route.
(§4) The animals are sacrificed after 24 hours and then one proceeds to the evaluation of the damage to the gastrointestinal mucosa.
(§5) Test 1—experimental model in vivo with N-ethylmaleimide (NEM): study of the gastric tolerability of some drugs screened as precursors of the compounds of the invention.
(§6) The animals (rats, weight about 200 g) are distributed in the following groups (No. 10 animals for group):
(§7) • 1° group: treatment: only carrier (aqueous suspension 1% w/v of carboxymethylcellulose, dose: 5 ml/Kg when the drug is administered by os, physiologic solution when by parenteral route), • 20 group: treatment: carrier+NEM, B) Groups administered with each drug: • group I: treatment: carrier+drug, • group II: treatment: carrier+drug+NEM.
(§8) The drug is administered one hour later, in suspension in the carrier. Animals are sacrificed after 24 hours and evaluation of the damage to the gastrointestinal mucosa is made by counting the number of rats, inside each group, with lesions to the stomach at a visual inspection. The total number of said rats is then divided by the total number of rats of the group and multiplied by 100.

[2] = system: Human endothelial cells of the umbilical vein; test: Test 2 (CIP): apoptosis (DNA fragmentation) induced by cumene hydroperoxide in endothelial cells; assay type: cell-based; details: for activity at 100 µM: Homo sapiens, Endothelial cell, 1 h, read-out: Apoptosis % with respect to the controls treated only with CIP; for inhibition of apoptosis induced by CIP (in words, significance p<0.01): CIP 5 mM
Protocol: Test 2 (CIP): Protection parameter of endothelial cell against the oxidative stress induced by cumene hydroperoxide (CIP).
Human endothelial cells of the umbilical vein are prepared according to an usual standard procedure. Fresh umbilical veins are filled with a 0.1% by weight collagenase solution and incubated at 37° C. for 5 minutes.
The cells are collected from the perfusate by centrifugation and harvested in culture flasks T-75, pretreated with human fibronectin. The cells are then harvested in the same medium, further added with 10 ng/ml of bovine hypothalamic growth factor. When the cells of the primary cell culture (i.e. that directly obtained from ex-vivo) form a single layer of confluent cells (about 8,000,000 cells/flask), the culture is stopped and the layers washed and trypsinized. The cellular suspensions are transferred into the wells of a cell culture plate having 24 wells, half of which is then additioned with the same culture medium containing the drug at a 10^−4M concentration, and harvested in a thermostat at 37° C. at a constant moisture. Only the cells coming from said first sub-cultures are used for the experiments with cumene hydroperoxide (CIP).
Before starting the test, the cellular culture medium is removed and the cellular layers are carefully washed with a physiologic solution at a temperature of 37° C. The wells of the culture plate are then incubated for one hour with CIP at a 5 mM concentration in the culture medium. […] 5 replicates for each sample are carried out.
Human endothelial cells of the umbilical vein are prepared according to a standard method. Fresh umbilical veins are filled with a collagenase solution 0.1% by weight and incubated at 37° C. for 5 minutes.
The cells are collected from the perfusate by centrifugation at 800 rpm and harvested in culture flasks T-75, pretreated with human fibronectin. Cells are then harvested in the same medium, added with bovine hypothalamic growth factor (100 ng/ml). When the cells of the primary cell culture (the cells directly removed from ex-vivo umbilical vein) form a single layer of confluent cells (abdut 8,000,000 cells/flask), harvesting is stopped and the layers are washed and trypsinized. The cellular suspensions are transferred into wells of a culture plate having 24 wells, half of said wells being added with the same culture medium containing the drug at a 10^−4M concentration, and harvested in a thermostat at 37° C. at a constant moisture (90%), CO2=5%. When the drug is not soluble in the culture medium, it is formerly dissolved in a small amount of di-methylsulphoxide. The maximum amount of dimethylsulphoxide which can be added to the culture medium is 0.5%. Only the cells coming from these first subcultures are used for the tests with cumene hydroperoxide (CIP).
Before starting the test, the cellular culture medium is removed and the cellular layers are carefully washed with a standard physiologic solution buffered with phosphate 0.1 M pH 7.0, at the temperature of 37° C. The content of each well is then incubated for one hour with a CIP suspension in the culture medium at a 5 mM concentration. Evaluation of the cellular damage (apoptosis) is carried out by determining the percent variation of the DNA fragmentation in the cultures containing the drug+CIP with respect to the controls treated with CIP only. […] The fluorescence of each sample was determined on 5 replicates. Statistic evaluation has been made with t Student test (p<0.01).

[3] = Test 4: inhibition of radical production from DPPH; details: 100 μM (10^-4 M) in methanol, 30 minutes, absorbance 517 nm
Protocol: Test 4 is a […] test which affords to establish whether the precursor of B or B1 (precursor of the X2 or X2a of the formulas (I) and (II) respectively), inhibits the production of radicals from DPPH (2,2-diphenyl-1-picryl-hydrazyl) (M. S. Nenseter et Al., Atheroscler. Thromb. 15, 1338-1344, 1995). 100 μM solutions in methanol of the tested substances are prepared, and an aliquot of each of said solutions is added to a DPPH solution in methanol […]. After having stored the solutions at room temperature away from light for 30 minutes, their absorbances are read at the wave length of 517 nm, together with that of the corresponding DPPH solution at the same concentration. The absorbance decrease with respect to that of the solution of DPPH at the same concentration of the test solutions is determined. The effectiveness of the tested compound in inhibiting formation of radicals by DPPH is expressed by the following formula: (1−AS/AC)X100 wherein AS and AC are respectively the absorbance values of the solution containing the test compound together with DPPH and of the solution containing only DPPH.
The B or B1 precursor satisfies test 4 if their effectiveness in inhibiting radical production as above defined, is equal to or higher than 50% at the indicated concentration (10^−4 M).
Test 4: inhibition of the radical production from DPPH of some substances to be used as precursors of B or B1 (ref. Formulas I and II of the invention)
The method is based on a colorimetric test in which DPPH (2,2-diphenyl-1-picryl-hydrazyl) is used as the compound-forming radicals (M. S. Nenseter et Al., Atheroscler. Thromb. 15, 1338-1344, 1995).
Solutions in methanol of the tested substances at a final concentration 100 μM are initially prepared. 0.1 ml of each of these solutions are added to aliquots of 1 ml of a methanol solution 0.1 M of DPPH and then the final volume is brought to 1.5 ml. After having stored the solutions at room temperature away from light for 30 minutes, the absorbance at the wave length of 517 nm is read. It is determined the absorbance decrease with respect to the absorbance of a solution containing the same concentration of DPPH.
The efficacy of the test compound to inhibit the production of radicals, or antiradical activity, is expressed by the following formula: (1−AS/AC)X100 wherein AS and AC are, respectively, the absorbance values of the solution containing the test compound together+DPPH and of the solution containing only DPPH.
The compound meets test 4 if radical production inhibition, as above defined, is equal to or higher than 50%.

[4] = system: rats not treated or treated with NEM; test: in vivo; details: rats not treated with NEM; single dose; route given with each value (p.o., i.c., s.c.)
Protocol: as §1, §2, §3, §4, §5, §6, §7, §8

[5] = Table II, drug 10^-4 M, CIP 5 mM for one hour, DNA fragmentation

Compound | activity at 100 µM [2, 5] [%] | inhibition of apoptosis induced by CIP (in words, significance p<0.01) ([2]; drug 10^-4 M) | further results
CCCCC(C)(O)C/C=C/[C@H]1[C@H](O)CC(=O)[C@@H]1CCCCCCC(=O)OC (mixture of isomers) [Misoprostol, misoprostol] | – | – | MTD at 24 h [1]: 0.5 mg/kg
NCCCC(O)(P(=O)(O)O)P(=O)(O)O [Alendronate, sodic alendronate] | 160 | do not significantly inhibit apoptosis | –
Nc1c(Br)cc(Br)cc1CN[C@H]1CC[C@H](O)CC1 [Ambroxol, ambroxol] | – | inhibit apoptosis | –
CC1(C)S[C@@H]2[C@H](NC(=O)[C@H](N)c3ccccc3)C(=O)N2[C@H]1C(=O)O [Ampicilline, ampicilline] | – | do not significantly inhibit apoptosis | –
N[C@@H](CS)C(=O)O [Cisteine, cisteine] | – | – | % inhibition radicals from DPPH ([3]; 100 µM): 100%
Cn1c(=O)c2c(ncn2CC(O)CO)n(C)c1=O (stereo not shown) [Diphylline, diphylline] | 95 | do not significantly inhibit apoptosis | –
COc1cc(/C=C/C(=O)O)ccc1O [Ferulic acid, ferulic acid] | – | – | % inhibition radicals from DPPH ([3]; 100 µM): 100%
O=C(O)c1cc(O)ccc1O [Gentisic acid, gentisic acid] | – | – | % inhibition radicals from DPPH ([3]; 100 µM): 80%
COc1ccc2c(c1)c(CC(=O)O)c(C)n2C(=O)c1ccc(Cl)cc1 [Indomethacin, indomethacin] | 95 | not significantly different with respect to that of the controls | maximum tolerated dose (dose (mg/Kg)/admin. route) [4]: 7.5 mg/kg; Apoptosis % with respect to the controls treated only with CIP ([2]; Table III, second apoptosis experiment (Example F6), CIP-induced DNA fragmentation): 95%; inhibition of apoptosis induced by CIP (in words, significance p<0.01) ([2]; drug 10^-4 M, listed as indomethacin): do not significantly inhibit apoptosis
Nc1ccc(O)c(C(=O)O)c1 [Mesalamine, mesalamine] | 74 | inhibit apoptosis; also recorded: inhibits the apoptosis induced by CIP | MTD at 24 h [1]: 750 mg/kg
CC(=O)N[C@H](CS)C(=O)O [N-acetylcisteine] | – | – | % inhibition radicals from DPPH ([3]; listed as N-acetylcysteine, 100 µM): 100%
NC(=O)c1cccnc1 [Nicotinamide, nicotinamide] | 98 | do not significantly inhibit apoptosis | –
COc1ccc2[nH]c([S+]([O-])Cc3ncc(C)c(OC)c3C)nc2c1 (stereo not shown) [Omeprazol, omeprazol] | 90 | do not significantly inhibit apoptosis | maximum tolerated dose (dose (mg/Kg)/admin. route) [4]: 30/s.c. mg/Kg
CC(=O)Nc1ccc(O)cc1 [Paracetamol, paracetamol] | 120 | do not significantly inhibit apoptosis; also recorded: not significantly different with respect to that of the controls | –
CC(C)(S)[C@@H](N)C(=O)O [Penicillamine, penicillamine] | – | – | % inhibition radicals from DPPH [3]: 100%
CC(C)(C)NCC(O)c1ccc(O)c(CO)c1 (stereo not shown) [Salbutamol, salbutamol] | 90 | do not significantly inhibit apoptosis | –
CCC(C)(C)C(=O)O[C@H]1C[C@@H](C)C=C2C=C[C@H](C)C(CCC3CC(O)CC(=O)O3)[C@H]21 (stereo partly shown) [Simvastatine, simvastatine] | 72 | – | –
Nc1c2c(nc3ccccc13)CCCC2 [Tacrine, tacrine] | 90 | do not significantly inhibit apoptosis | maximum tolerated dose (dose (mg/Kg)/admin. route) [4]: 1/s.c. mg/Kg
aciclovir | – | do not significantly inhibit apoptosis | Apoptosis % with respect to the controls treated only with CIP [2, 5]: 95%
cetirizine | – | do not significantly inhibit apoptosis | Apoptosis % with respect to the controls treated only with CIP [2, 5]: 115%
clopidogrel | – | do not significantly inhibit apoptosis | Apoptosis % with respect to the controls treated only with CIP [2, 5]: 110%
enalapril | – | do not significantly inhibit apoptosis | –
